Source: ChEMBL document CHEMBL3046689, “Volatile aldehydes are promising broad-spectrum postharvest insecticides” (J Agric Food Chem, 2000)
Values after ≈ are worked out from the molar mass of the structure shown. Active and inactive are the calls of the source. The calls are words filed in the database; no cut-off is given here.

What was measured:
[1] = test system: Pseudococcus viburni; experiment: Insecticidal activity against Pseudococcus viburni; format: functional, organism-based
[2] = test system: Lactuca sativa; experiment: Phytotoxicity in naked Lactuca sativa (lettuce) assessed as residual aldehyde odor after compound application through two-tier reduced pressure fumigation at 30 mmHg for 0.5 hr and then 760 mmHg for 1.5 hr at 23 +/- 1 degC after 2 hr; format: organism-based; conditions: in vivo
[3] = test system: Pseudococcus affinis; experiment: Insecticidal activity against Pseudococcus affinis; format: functional, organism-based
[4] = test system: Bemisia; experiment: Insecticidal activity against Bemisia sp.; format: functional, organism-based
[5] = test system: Lactuca sativa; experiment: Phytotoxicity in naked Lactuca sativa (lettuce) assessed as change in visual quality after compound application through two-tier reduced pressure fumigation at 30 mmHg for 0.5 hr and then 760 mmHg for 1.5 hr at 23 +/- 1 degC after 2 hr; format: organism-based; conditions: in vivo
[6] = test system: Tetranychus urticae; experiment: Insecticidal activity against Tetranychus urticae (two-spotted spider mite); format: functional, organism-based
[7] = test system: Brevicoryne brassicae; experiment: Insecticidal activity against Brevicoryne brassicae (cabbage aphids); format: functional, organism-based
[8] = test system: Frankliniella occidentalis; experiment: Insecticidal activity against Frankliniella occidentalis (western flower thrips); format: functional, organism-based
[9] = test system: Myzus persicae; experiment: Insecticidal activity against Myzus persicae (green peach aphid) placed under third leaf of naked Iceburg lettuce heads and after compound application for 2 hr through two-tier reduced pressure fumigation at 30 mmHg for 0.5 hr and then 760 mmHg for 1.5 hr at 23 +/- 1 degC measured after 24 hr; format: functional; conditions: for LC50: Myzus persicae, read-out: LD50 (the source's name)
[10] = test system: Myzus persicae; experiment: Insecticidal activity against Myzus persicae (green peach aphid) applied through two-tier reduced pressure fumigation at 30 mmHg for 0.5 hr and then 760 mmHg for 1.5 hr at 23 +/- 1 degC; format: functional; conditions: Myzus persicae; read-out: LD50 (the source's name)
[11] = test system: Myzus persicae; experiment: Insecticidal activity against Myzus persicae (green peach aphid) applied through atmospheric pressure fumigation at 760 mmHg for 2 hr at 23 +/- 1 degC; format: functional; conditions: read-out: LD50 (the source's name)
[12] = test system: Myzus persicae; experiment: Potentiation factor, ratio of LD50 for Myzus persicae (green peach aphid) applied through atmospheric pressure fumigation at 760 mmHg for 2 hr at 23 +/- 1 degC to LD50 for Myzus persicae (green peach aphid) applied through two-tier reduced pressure fumigation at 30 mmHg for 0.5 hr and then 760 mmHg for 1.5 hr at 23 +/- 1 degC; format: functional
[13] = test system: Lactuca sativa; experiment: Phytotoxicity in wrapped Lactuca sativa (lettuce) assessed as induction of olfactory damage after compound application for 1 hr through two-tier reduced pressure fumigation at 30 mmHg for 0.5 hr and then 760 mmHg for 1.5 hr at 23 +/- 1 degC; format: organism-based; conditions: in vivo
[14] = test system: Oryza sativa; experiment: Phytotoxicity in Oryza sativa (rice) assessed as induction of olfactory damage after compound application for 1 hr through two-tier reduced pressure fumigation at 30 mmHg for 0.5 hr and then 760 mmHg for 1.5 hr at 23 +/- 1 degC; format: organism-based; conditions: in vivo
[15] = test system: Persea americana; experiment: Phytotoxicity in Persea americana (avocado) assessed as induction of olfactory damage after compound application for 1 hr through two-tier reduced pressure fumigation at 30 mmHg for 0.5 hr and then 760 mmHg for 1.5 hr at 23 +/- 1 degC; format: organism-based; conditions: in vivo
[16] = test system: Vitis vinifera; experiment: (§1) Phytotoxicity in Vitis vinifera assessed as induction of visual damage after compound application for 1 hr through two-tier reduced pressure fumigation at 30 mmHg for 0.5 hr and then 760 mmHg for 1.5 hr at 23 +/- 1 degC; format: organism-based; conditions: in vivo
[17] = test system: Lactuca sativa; experiment: Phytotoxicity in naked Lactuca sativa (lettuce) after compound application for 1 hr through two-tier reduced pressure fumigation at 30 mmHg for 0.5 hr and then 760 mmHg for 1.5 hr at 23 +/- 1 degC; format: organism-based; conditions: in vivo
[18] = test system: Lactuca sativa; experiment: Phytotoxicity in naked Lactuca sativa (lettuce) assessed as induction of olfactory damage after compound application for 1 hr through two-tier reduced pressure fumigation at 30 mmHg for 0.5 hr and then 760 mmHg for 1.5 hr at 23 +/- 1 degC; format: organism-based; conditions: in vivo
[19] = test system: Persea americana; experiment: Phytotoxicity in Persea americana (avocado) assessed as induction of visual damage after compound application for 1 hr through two-tier reduced pressure fumigation at 30 mmHg for 0.5 hr and then 760 mmHg for 1.5 hr at 23 +/- 1 degC; format: organism-based; conditions: in vivo
[20] = test system: Lactuca sativa; experiment: Phytotoxicity in naked Lactuca sativa (lettuce) assessed as change in visual quality after compound application for 1 hr through two-tier reduced pressure fumigation at 30 mmHg for 0.5 hr and then 760 mmHg for 1.5 hr at 23 +/- 1 degC; format: organism-based; conditions: in vivo
[21] = test system: Citrus x paradisi; experiment: Phytotoxicity in Citrus x paradisi (grape fruit) assessed as induction of olfactory damage after compound application for 1 hr through two-tier reduced pressure fumigation at 30 mmHg for 0.5 hr and then 760 mmHg for 1.5 hr at 23 +/- 1 degC; format: organism-based; conditions: in vivo
[22] = test system: Vitis vinifera; experiment: (§2) Phytotoxicity in Vitis vinifera assessed as induction of olfactory damage after compound application for 1 hr through two-tier reduced pressure fumigation at 30 mmHg for 0.5 hr and then 760 mmHg for 1.5 hr at 23 +/- 1 degC; format: organism-based; conditions: in vivo
[23] = test system: Malus domestica; experiment: Phytotoxicity in Malus x domestica (apple) assessed as induction of visual damage after compound application for 1 hr through two-tier reduced pressure fumigation at 30 mmHg for 0.5 hr and then 760 mmHg for 1.5 hr at 23 +/- 1 degC; format: organism-based; conditions: in vivo
[24] = test system: Myzus persicae; experiment: Insecticidal activity against Myzus persicae (green peach aphid) infested naked lettuce applied for 1 hr through two-tier reduced pressure fumigation at 30 mmHg for 0.5 hr and then 760 mmHg for 1.5 hr at 23 +/- 1 degC measured 24 hr; format: functional, organism-based
[25] = test system: Brassica oleracea var. italica; experiment: Phytotoxicity in Brassica oleracea var. italica assessed as induction of olfactory damage after compound application for 1 hr through two-tier reduced pressure fumigation at 30 mmHg for 0.5 hr and then 760 mmHg for 1.5 hr at 23 +/- 1 degC; format: organism-based; conditions: in vivo
[26] = test system: Brassica oleracea var. capitata; experiment: Phytotoxicity in Brassica oleracea var. capitata (cabbage) after compound application for 1 hr through two-tier reduced pressure fumigation at 30 mmHg for 0.5 hr and then 760 mmHg for 1.5 hr at 23 +/- 1 degC; format: organism-based; conditions: in vivo
[27] = test system: Brassica oleracea var. italica; experiment: Phytotoxicity in Brassica oleracea var. italica after compound application for 1 hr through two-tier reduced pressure fumigation at 30 mmHg for 0.5 hr and then 760 mmHg for 1.5 hr at 23 +/- 1 degC; format: organism-based; conditions: in vivo
[28] = test system: Malus domestica; experiment: Phytotoxicity in Malus x domestica (apple) assessed as induction of olfactory damage after compound application for 1 hr through two-tier reduced pressure fumigation at 30 mmHg for 0.5 hr and then 760 mmHg for 1.5 hr at 23 +/- 1 degC; format: organism-based; conditions: in vivo
[29] = test system: Vitis vinifera; experiment: as §1; format: organism-based; conditions: in vivo; remark: listed apart in the source
[30] = test system: Citrus x paradisi; experiment: Phytotoxicity in Citrus x paradisi (grape fruit) assessed as induction of visual damage after compound application for 1 hr through two-tier reduced pressure fumigation at 30 mmHg for 0.5 hr and then 760 mmHg for 1.5 hr at 23 +/- 1 degC; format: organism-based; conditions: in vivo
[31] = test system: Brassica oleracea var. capitata; experiment: Phytotoxicity in Brassica oleracea var. capitata (cabbage) assessed as induction of olfactory damage after compound application for 1 hr through two-tier reduced pressure fumigation at 30 mmHg for 0.5 hr and then 760 mmHg for 1.5 hr at 23 +/- 1 degC; format: organism-based; conditions: in vivo
[32] = test system: Vitis vinifera; experiment: as §2; format: organism-based; conditions: in vivo; remark: listed apart in the source
[33] = test system: Myzus persicae; experiment: Insecticidal activity against Myzus persicae (green peach aphid) infested wrapped lettuce applied for 1 hr through two-tier reduced pressure fumigation at 30 mmHg for 0.5 hr and then 760 mmHg for 1.5 hr at 23 +/- 1 degC measured 24 hr; format: functional, organism-based
[34] = test system: Myzus persicae; experiment: Insecticidal activity Myzus persicae (green peach aphid) on flower bulbs; format: functional
[35] = test system: Thysanoptera; experiment: Insecticidal activity Thysanoptera (thrips) on flower bulbs; format: functional
[36] = test system: Acari; experiment: Insecticidal activity mites on flower bulbs; format: functional
[37] = test system: Frankliniella occidentalis; experiment: Insecticidal activity against Frankliniella occidentalis (western flower thrips) larva and adults; format: functional

Question: Which Activity [1] does the source give for `CCCC(C)C=O` (centres undefined) [2-METHYLPENTANAL] here?
Answer: Active

Question: What about the Activity [2] of the same compound?
Answer: Toxic

Question: And the Activity [3]?
Answer: Active

Question: What about the Activity [4] of the same compound?
Answer: Active

Question: And the Activity [5]?
Answer: Toxic

Question: And the Activity [6]?
Answer: inactive

Question: What about the Activity [7] of the same compound?
Answer: inactive

Question: What about the Activity [8] of the same compound?
Answer: Active

Question: What about the LD90 [9] of the same compound?
Answer: 54.2 mg/L

Question: What about the LC50 [9] of the same compound?
Answer: 39.9 µg/mL (≈ 398 µM)

Question: With `CCCCC=O` [PENTANAL] as the compound, how does the Activity [1] read?
Answer: Active

Question: And the Activity [2]?
Answer: Toxic

Question: And the Activity [3]?
Answer: Active

Question: What about the Activity [4] of the same compound?
Answer: Active

Question: And the Activity [5]?
Answer: Toxic

Question: What about the Activity [6] of the same compound?
Answer: inactive

Question: What about the Activity [7] of the same compound?
Answer: inactive

Question: And the Activity [8]?
Answer: Active

Question: What about the LD90 [9] of the same compound?
Answer: 115.7 mg/L

Question: What about the LC50 [9] of the same compound?
Answer: 71.4 µg/mL (≈ 829 µM)

Question: Which LC50 [10] does the source give for `CCCCCCC=O` [HEPTANAL] here?
Answer: 5 µg/mL (≈ 43.8 µM)

Question: And the LC50 [11]?
Answer: 15 µg/mL (≈ 131 µM)

Question: And the Ratio [12]?
Answer: 3

Question: For `C/C=C(\C)C=O` [2-methyl-(E)-2-butenal], which Activity [13] is on record?
Answer: Toxic

Question: What about the Activity [1] of the same compound?
Answer: Active

Question: And the Activity [14]?
Answer: Toxic

Question: And the Activity [15]?
Answer: Non-toxic

Question: What about the Activity [16] of the same compound?
Answer: Non-toxic

Question: And the Activity [17]?
Answer: Toxic

Question: And the Activity [2]?
Answer: Toxic

Question: What about the Activity [18] of the same compound?
Answer: Toxic

Question: And the Activity [19]?
Answer: Non-toxic

Question: What about the Activity [3] of the same compound?
Answer: Active

Question: What about the Activity [20] of the same compound?
Answer: Toxic

Question: What about the Activity [21] of the same compound?
Answer: Non-toxic

Question: And the Activity [22]?
Answer: Non-toxic

Question: What about the Activity [23] of the same compound?
Answer: Non-toxic

Question: What about the Activity [24] of the same compound?
Answer: Active

Question: And the Activity [25]?
Answer: Toxic

Question: What about the Activity [4] of the same compound?
Answer: Active

Question: And the Activity [26]?
Answer: Toxic

Question: And the Activity [5]?
Answer: Toxic

Question: What about the Activity [27] of the same compound?
Answer: Toxic

Question: And the Activity [28]?
Answer: Non-toxic

Question: What about the Activity [29] of the same compound?
Answer: Non-toxic

Question: And the Activity [30]?
Answer: Non-toxic

Question: What about the Activity [6] of the same compound?
Answer: inactive

Question: And the Activity [7]?
Answer: inactive

Question: And the Activity [31]?
Answer: Toxic

Question: And the Activity [32]?
Answer: Non-toxic

Question: What about the Activity [8] of the same compound?
Answer: Active

Question: And the CTP [9]?
Answer: 310 mg/L.hr

Question: And the LD90 [9]?
Answer: 123.6 mg/L

Question: And the LC50 [9]?
Answer: 76.6 µg/mL (≈ 911 µM)

Question: What about the Activity [33] of the same compound?
Answer: Active

Question: Which CTP [34] does the source give for `CBr` [BROMOMETHANE] here?
Answer: 100 mg/L.hr

Question: And the CTP [35]?
Answer: 100 mg/L.hr

Question: What about the CTP [36] of the same compound?
Answer: 100 mg/L.hr

Question: And the CTP [37]?
Answer: 25 mg/L.hr
